Reference: ChEMBL document CHEMBL4507295 (2021)

Legend:
[1] = biological target: Cyclin-dependent kinase-like 1 (Homo sapiens) (UniProt Q00532); conditions: Compound concentration 1000.0 nM
[2] = biological target: Cyclin-dependent kinase-like 5 (Homo sapiens) (UniProt O76039); conditions: Compound concentration 1000.0 nM
[3] = biological target: Peripheral plasma membrane protein CASK (Homo sapiens) (UniProt O14936); conditions: Compound concentration 1000.0 nM
[4] = biological target: Mast/stem cell growth factor receptor Kit (Homo sapiens) (UniProt P10721); conditions: Compound concentration 1000.0 nM
[5] = biological target: Dual specificity mitogen-activated protein kinase kinase 1 (Homo sapiens) (UniProt Q02750); conditions: Compound concentration 1000.0 nM
[6] = tested on: Tyrosine-protein kinase ABL1 (Homo sapiens), P00519 [F317L]; conditions: Compound concentration 1000.0 nM
[7] = biological target: Mitogen-activated protein kinase 6 (Homo sapiens) (UniProt Q16659); conditions: Compound concentration 1000.0 nM
[8] = tested on: Tyrosine-protein kinase ABL1 (Homo sapiens), P00519 [H396P]; conditions: Compound concentration 1000.0 nM
[9] = biological target: Tyrosine-protein kinase HCK (Homo sapiens) (UniProt P08631); conditions: Compound concentration 1000.0 nM
[10] = biological target: Serine/threonine-protein kinase N1 (Homo sapiens) (UniProt Q16512); conditions: Compound concentration 1000.0 nM
[11] = biological target: 5-hydroxytryptamine receptor 1D (Homo sapiens) (UniProt P28221); conditions: Compound concentration 10.0 uM
[12] = biological target: Histamine H3 receptor (Homo sapiens) (UniProt Q9Y5N1); conditions: Compound concentration 10.0 uM
[13] = biological target: Tyrosine-protein kinase ZAP-70 (Homo sapiens) (UniProt P43403); conditions: Compound concentration 1000.0 nM
[14] = biological target: Phosphatidylinositol 4-phosphate 3-kinase C2 domain-containing subunit beta (Homo sapiens) (UniProt O00750); conditions: Compound concentration 1000.0 nM
[15] = biological target: Death-associated protein kinase 2 (Homo sapiens) (UniProt Q9UIK4); conditions: Compound concentration 1000.0 nM
[16] = biological target: Cyclin-dependent kinase 11A (Homo sapiens) (UniProt Q9UQ88); conditions: Compound concentration 1000.0 nM
[17] = biological target: Serine/threonine-protein kinase 32C (Homo sapiens) (UniProt Q86UX6); conditions: Compound concentration 1000.0 nM
[18] = biological target: Ribosomal protein S6 kinase alpha-4 (Homo sapiens) (UniProt O75676); conditions: Compound concentration 1000.0 nM
[19] = biological target: Mitogen-activated protein kinase kinase kinase 3 (Homo sapiens) (UniProt Q99759); conditions: Compound concentration 1000.0 nM
[20] = biological target: Serine/threonine-protein kinase MRCK alpha (Homo sapiens) (UniProt Q5VT25); conditions: Compound concentration 1000.0 nM
[21] = biological target: Ephrin type-B receptor 6 (Homo sapiens) (UniProt O15197); conditions: Compound concentration 1000.0 nM
[22] = biological target: Serine/threonine-protein kinase Nek3 (Homo sapiens) (UniProt P51956); conditions: Compound concentration 1000.0 nM
[23] = tested on: Mast/stem cell growth factor receptor Kit (Homo sapiens), P10721 [V559D]; conditions: Compound concentration 1000.0 nM
[24] = biological target: Phosphorylase b kinase regulatory subunit alpha, liver isoform (Homo sapiens) (UniProt P46019); conditions: Compound concentration 1000.0 nM
[25] = biological target: AP2-associated protein kinase 1 (Homo sapiens) (UniProt Q2M2I8); conditions: Compound concentration 1000.0 nM
[26] = tested on: Epidermal growth factor receptor (Homo sapiens), P00533 [T790M]; conditions: Compound concentration 1000.0 nM
[27] = tested on: Epidermal growth factor receptor (Homo sapiens), P00533 [L858R,T790M]; conditions: Compound concentration 1000.0 nM
[28] = biological target: 1-phosphatidylinositol 3-phosphate 5-kinase (Homo sapiens) (UniProt Q9Y2I7); conditions: Compound concentration 1000.0 nM
[29] = biological target: Megakaryocyte-associated tyrosine-protein kinase (Homo sapiens) (UniProt P42679); conditions: Compound concentration 1000.0 nM
[30] = biological target: Death-associated protein kinase 1 (Homo sapiens) (UniProt P53355); conditions: Compound concentration 1000.0 nM
[31] = biological target: Serine/threonine-protein kinase 32A (Homo sapiens) (UniProt Q8WU08); conditions: Compound concentration 1000.0 nM
[32] = tested on: Receptor-type tyrosine-protein kinase FLT3 (Homo sapiens), P36888 [D835Y]; conditions: Compound concentration 1000.0 nM
[33] = biological target: cAMP-dependent protein kinase catalytic subunit beta (Homo sapiens) (UniProt P22694); conditions: Compound concentration 1000.0 nM
[34] = biological target: Aurora kinase A (Homo sapiens) (UniProt O14965); conditions: Compound concentration 1000.0 nM
[35] = biological target: Tyrosine-protein kinase ABL1 (Homo sapiens) (UniProt P00519); conditions: Compound concentration 1000.0 nM
[36] = biological target: Mitogen-activated protein kinase kinase kinase 1 (Homo sapiens) (UniProt Q13233); conditions: Compound concentration 1000.0 nM
[37] = biological target: LIM domain kinase 1 (Homo sapiens) (UniProt P53667); conditions: Compound concentration 1000.0 nM
[38] = tested on: Proto-oncogene tyrosine-protein kinase receptor Ret (Homo sapiens), P07949 [V804L]; conditions: Compound concentration 1000.0 nM
[39] = biological target: Eukaryotic translation initiation factor 2-alpha kinase 1 (Homo sapiens) (UniProt Q9BQI3); conditions: Compound concentration 1000.0 nM
[40] = biological target: Serine/threonine-protein kinase VRK2 (Homo sapiens) (UniProt Q86Y07); conditions: Compound concentration 1000.0 nM
[41] = biological target: Calcium/calmodulin-dependent protein kinase type 1B (Homo sapiens) (UniProt Q6P2M8); conditions: Compound concentration 1000.0 nM
[42] = biological target: Membrane-associated tyrosine- and threonine-specific cdc2-inhibitory kinase (Homo sapiens) (UniProt Q99640); conditions: Compound concentration 1000.0 nM
[43] = biological target: Transient receptor potential cation channel subfamily M member 6 (Homo sapiens) (UniProt Q9BX84); conditions: Compound concentration 1000.0 nM
[44] = biological target: Casein kinase II subunit alpha' (Homo sapiens) (UniProt P19784); conditions: Compound concentration 1000.0 nM
[45] = biological target: Phosphatidylinositol 4-phosphate 5-kinase type-1 gamma (Homo sapiens) (UniProt O60331); conditions: Compound concentration 1000.0 nM

Histamine H3 receptor (Homo sapiens), sequence (Q9Y5N1 whole entry): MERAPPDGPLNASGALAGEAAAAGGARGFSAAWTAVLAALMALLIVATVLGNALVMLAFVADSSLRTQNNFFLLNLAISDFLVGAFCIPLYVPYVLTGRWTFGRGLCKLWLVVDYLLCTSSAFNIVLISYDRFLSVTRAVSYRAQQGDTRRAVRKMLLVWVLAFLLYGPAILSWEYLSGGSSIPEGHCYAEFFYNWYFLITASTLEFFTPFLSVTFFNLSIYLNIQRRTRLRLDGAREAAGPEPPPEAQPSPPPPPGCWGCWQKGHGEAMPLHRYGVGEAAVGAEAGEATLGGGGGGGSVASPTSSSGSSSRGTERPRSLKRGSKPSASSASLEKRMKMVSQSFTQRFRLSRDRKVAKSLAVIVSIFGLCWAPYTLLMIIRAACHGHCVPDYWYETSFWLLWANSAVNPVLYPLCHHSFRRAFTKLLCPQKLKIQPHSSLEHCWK
Calcium/calmodulin-dependent protein kinase type 1B (Homo sapiens), sequence (Q6P2M8 whole entry): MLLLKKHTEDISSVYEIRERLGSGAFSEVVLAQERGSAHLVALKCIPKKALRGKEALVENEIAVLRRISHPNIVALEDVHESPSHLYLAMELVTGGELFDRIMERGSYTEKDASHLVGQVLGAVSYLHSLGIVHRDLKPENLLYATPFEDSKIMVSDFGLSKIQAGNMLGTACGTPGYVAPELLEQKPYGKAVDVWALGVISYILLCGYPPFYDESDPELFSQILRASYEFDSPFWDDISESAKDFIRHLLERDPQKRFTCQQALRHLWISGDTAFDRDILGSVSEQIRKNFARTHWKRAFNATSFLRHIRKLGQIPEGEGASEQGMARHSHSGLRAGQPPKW
Cyclin-dependent kinase-like 5 (Homo sapiens), sequence (O76039 whole entry): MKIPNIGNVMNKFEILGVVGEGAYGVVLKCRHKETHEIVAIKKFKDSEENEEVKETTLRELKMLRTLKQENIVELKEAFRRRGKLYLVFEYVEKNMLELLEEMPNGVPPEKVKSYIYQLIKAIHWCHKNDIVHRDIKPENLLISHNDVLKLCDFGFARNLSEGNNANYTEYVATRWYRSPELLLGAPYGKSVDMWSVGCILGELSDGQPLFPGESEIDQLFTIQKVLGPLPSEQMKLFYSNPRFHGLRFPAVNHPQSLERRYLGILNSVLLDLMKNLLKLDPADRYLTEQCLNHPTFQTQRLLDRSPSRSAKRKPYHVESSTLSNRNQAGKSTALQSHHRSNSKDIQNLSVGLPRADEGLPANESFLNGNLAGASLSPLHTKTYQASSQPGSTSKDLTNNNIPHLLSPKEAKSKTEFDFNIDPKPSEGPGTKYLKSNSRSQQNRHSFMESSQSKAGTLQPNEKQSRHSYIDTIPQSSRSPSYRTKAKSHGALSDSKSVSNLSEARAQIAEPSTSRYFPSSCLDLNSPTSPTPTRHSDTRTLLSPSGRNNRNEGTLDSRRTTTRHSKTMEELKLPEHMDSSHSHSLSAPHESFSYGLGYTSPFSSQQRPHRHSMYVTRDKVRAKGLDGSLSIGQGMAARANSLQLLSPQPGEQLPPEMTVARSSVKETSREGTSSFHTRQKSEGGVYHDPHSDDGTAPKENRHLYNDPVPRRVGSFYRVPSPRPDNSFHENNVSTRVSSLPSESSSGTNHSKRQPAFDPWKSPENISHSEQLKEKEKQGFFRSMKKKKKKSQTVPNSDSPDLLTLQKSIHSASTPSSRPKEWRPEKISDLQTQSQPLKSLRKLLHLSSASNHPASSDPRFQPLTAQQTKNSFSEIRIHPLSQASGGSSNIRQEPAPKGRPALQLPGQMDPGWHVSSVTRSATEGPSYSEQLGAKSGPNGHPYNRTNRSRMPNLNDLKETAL
Serine/threonine-protein kinase VRK2 (Homo sapiens), sequence (Q86Y07 whole entry): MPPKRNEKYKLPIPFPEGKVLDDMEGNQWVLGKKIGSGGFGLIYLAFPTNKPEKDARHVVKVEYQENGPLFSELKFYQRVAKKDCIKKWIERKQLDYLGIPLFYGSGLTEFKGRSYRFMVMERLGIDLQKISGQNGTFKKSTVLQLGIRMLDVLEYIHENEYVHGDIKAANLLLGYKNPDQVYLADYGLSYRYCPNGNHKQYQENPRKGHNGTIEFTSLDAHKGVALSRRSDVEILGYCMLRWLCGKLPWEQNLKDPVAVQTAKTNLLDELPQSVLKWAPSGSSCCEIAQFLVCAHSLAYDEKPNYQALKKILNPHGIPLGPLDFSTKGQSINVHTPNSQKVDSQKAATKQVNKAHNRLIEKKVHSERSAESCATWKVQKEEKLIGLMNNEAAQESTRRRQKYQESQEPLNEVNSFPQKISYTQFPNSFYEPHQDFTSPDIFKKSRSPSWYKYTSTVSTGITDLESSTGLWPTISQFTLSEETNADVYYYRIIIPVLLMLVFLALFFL
Serine/threonine-protein kinase 32A (Homo sapiens), sequence (Q8WU08 whole entry): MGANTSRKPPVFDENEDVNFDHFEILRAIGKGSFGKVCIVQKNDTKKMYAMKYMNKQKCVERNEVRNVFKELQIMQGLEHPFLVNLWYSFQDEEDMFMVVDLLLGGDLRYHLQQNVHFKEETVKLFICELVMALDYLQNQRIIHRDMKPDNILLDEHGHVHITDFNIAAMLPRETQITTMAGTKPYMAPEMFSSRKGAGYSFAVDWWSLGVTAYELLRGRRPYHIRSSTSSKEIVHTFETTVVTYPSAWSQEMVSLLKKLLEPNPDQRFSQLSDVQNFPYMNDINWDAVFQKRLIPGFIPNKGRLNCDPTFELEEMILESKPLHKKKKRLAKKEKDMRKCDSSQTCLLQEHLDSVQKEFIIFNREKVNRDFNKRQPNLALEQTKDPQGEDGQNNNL
Tyrosine-protein kinase ZAP-70 (Homo sapiens), sequence (P43403 whole entry, the tested form may be a part): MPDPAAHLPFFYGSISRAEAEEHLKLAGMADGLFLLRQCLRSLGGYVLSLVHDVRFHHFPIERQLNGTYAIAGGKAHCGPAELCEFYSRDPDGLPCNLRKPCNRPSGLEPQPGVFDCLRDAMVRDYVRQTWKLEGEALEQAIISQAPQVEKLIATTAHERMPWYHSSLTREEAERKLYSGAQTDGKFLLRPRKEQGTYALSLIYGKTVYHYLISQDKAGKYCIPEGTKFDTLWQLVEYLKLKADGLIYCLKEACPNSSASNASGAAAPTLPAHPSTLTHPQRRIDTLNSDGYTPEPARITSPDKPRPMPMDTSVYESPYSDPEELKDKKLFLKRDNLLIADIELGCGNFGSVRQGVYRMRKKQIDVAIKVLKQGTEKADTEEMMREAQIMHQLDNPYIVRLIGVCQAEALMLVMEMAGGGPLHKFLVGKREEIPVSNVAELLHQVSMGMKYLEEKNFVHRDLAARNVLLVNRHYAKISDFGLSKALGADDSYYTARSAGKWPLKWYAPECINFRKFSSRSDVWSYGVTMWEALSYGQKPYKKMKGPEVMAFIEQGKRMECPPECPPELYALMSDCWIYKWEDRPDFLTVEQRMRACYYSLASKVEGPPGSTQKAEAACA
Mast/stem cell growth factor receptor Kit (Homo sapiens), sequence (P10721 whole entry): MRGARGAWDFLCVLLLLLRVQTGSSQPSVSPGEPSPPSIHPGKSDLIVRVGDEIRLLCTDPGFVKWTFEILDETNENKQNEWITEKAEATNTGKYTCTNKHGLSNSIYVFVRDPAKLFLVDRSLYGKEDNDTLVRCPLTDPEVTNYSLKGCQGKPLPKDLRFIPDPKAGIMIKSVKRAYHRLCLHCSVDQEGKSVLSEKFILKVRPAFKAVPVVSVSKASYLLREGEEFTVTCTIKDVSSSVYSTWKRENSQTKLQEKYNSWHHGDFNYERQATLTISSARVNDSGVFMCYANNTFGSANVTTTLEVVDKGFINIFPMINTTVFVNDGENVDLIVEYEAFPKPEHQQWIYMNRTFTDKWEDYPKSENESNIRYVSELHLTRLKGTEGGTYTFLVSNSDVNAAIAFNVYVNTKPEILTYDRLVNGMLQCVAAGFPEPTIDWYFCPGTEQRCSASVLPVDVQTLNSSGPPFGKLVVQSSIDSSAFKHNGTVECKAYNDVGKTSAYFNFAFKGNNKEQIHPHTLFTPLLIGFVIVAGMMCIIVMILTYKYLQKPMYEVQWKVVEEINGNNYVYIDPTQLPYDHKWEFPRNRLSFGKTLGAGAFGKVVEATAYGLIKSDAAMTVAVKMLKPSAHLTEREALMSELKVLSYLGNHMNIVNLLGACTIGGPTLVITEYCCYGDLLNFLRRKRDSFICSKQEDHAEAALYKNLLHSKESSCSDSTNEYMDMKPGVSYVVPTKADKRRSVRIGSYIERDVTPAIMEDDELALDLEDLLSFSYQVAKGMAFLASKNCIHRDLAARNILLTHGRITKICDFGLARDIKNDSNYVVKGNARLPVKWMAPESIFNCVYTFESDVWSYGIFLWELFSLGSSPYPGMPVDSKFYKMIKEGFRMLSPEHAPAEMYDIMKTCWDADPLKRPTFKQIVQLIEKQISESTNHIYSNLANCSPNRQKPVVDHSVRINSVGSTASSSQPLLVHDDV
Membrane-associated tyrosine- and threonine-specific cdc2-inhibitory kinase (Homo sapiens), sequence (Q99640 whole entry): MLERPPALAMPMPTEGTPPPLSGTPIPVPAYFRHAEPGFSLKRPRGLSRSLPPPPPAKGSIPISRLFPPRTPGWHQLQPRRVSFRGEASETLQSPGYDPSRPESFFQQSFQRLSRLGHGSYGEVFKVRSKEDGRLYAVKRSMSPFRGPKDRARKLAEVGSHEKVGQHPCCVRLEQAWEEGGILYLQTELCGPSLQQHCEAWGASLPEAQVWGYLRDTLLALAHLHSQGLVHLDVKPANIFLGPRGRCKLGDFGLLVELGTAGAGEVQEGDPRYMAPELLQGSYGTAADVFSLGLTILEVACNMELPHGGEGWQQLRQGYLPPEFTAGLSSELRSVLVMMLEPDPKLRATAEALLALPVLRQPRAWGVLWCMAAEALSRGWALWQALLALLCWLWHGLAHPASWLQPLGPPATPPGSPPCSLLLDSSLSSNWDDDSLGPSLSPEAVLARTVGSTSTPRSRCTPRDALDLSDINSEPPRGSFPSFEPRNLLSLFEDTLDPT
Mast/stem cell growth factor receptor Kit (Homo sapiens), P10721 [V559D], sequence (P10721 whole entry V559D, canonical isoform): as the sequence (P10721 whole entry) above, with V559D counted along it

N#CC1(c2ccccn2)CCN(Cc2cc(C(=O)O)c(=O)n3ccccc23)CC1 [MSD-M1PAM]
inactive: residual activity [1] 100% | residual activity [2] 100% | residual activity [3] 100% | residual activity [4] 87% | residual activity [5] 95% | residual activity [6] 84% | residual activity [7] 100% | residual activity [8] 80% | residual activity [9] 100% | residual activity [10] 100% | inhibition [11] -4.55% | inhibition [12] 4.08% | residual activity [13] 100% | residual activity [14] 97% | residual activity [15] 99% | residual activity [16] 100% | residual activity [17] 72% | residual activity [18] 65% | residual activity [19] 77% | residual activity [20] 100% | residual activity [21] 73% | residual activity [22] 66% | residual activity [23] 100% | residual activity [24] 100% | residual activity [25] 100% | residual activity [26] 100% | residual activity [27] 71% | residual activity [28] 97% | residual activity [29] 84% | residual activity [30] 100% | residual activity [31] 90% | residual activity [32] 95% | residual activity [33] 92% | residual activity [34] 100% | residual activity [35] 100% | residual activity [36] 98% | residual activity [37] 100% | residual activity [38] 100% | residual activity [39] 86% | residual activity [40] 100% | residual activity [41] 100% | residual activity [42] 100% | residual activity [43] 100% | residual activity [44] 86% | residual activity [45] 89%

N#CC1(c2ccccn2)CCN(Cc2cc(C(=O)N3CCCC3)c(=O)n3ccccc23)CC1
inactive: residual activity [1] 78% | residual activity [2] 100% | residual activity [3] 100% | residual activity [4] 100% | residual activity [5] 100% | residual activity [6] 100% | residual activity [7] 79% | residual activity [8] 77% | residual activity [9] 100% | residual activity [10] 91% | inhibition [11] 14.6% | inhibition [12] 11.2% | residual activity [13] 100% | residual activity [14] 100% | residual activity [15] 94% | residual activity [16] 93% | residual activity [17] 100% | residual activity [18] 100% | residual activity [19] 92% | residual activity [20] 84% | residual activity [21] 100% | residual activity [22] 83% | residual activity [23] 100% | residual activity [24] 85% | residual activity [25] 100% | residual activity [26] 90% | residual activity [27] 100% | residual activity [28] 76% | residual activity [29] 76% | residual activity [30] 89% | residual activity [31] 98% | residual activity [32] 71% | residual activity [33] 54% | residual activity [34] 90% | residual activity [35] 89% | residual activity [36] 98% | residual activity [37] 98% | residual activity [38] 92% | residual activity [39] 83% | residual activity [40] 100% | residual activity [41] 90% | residual activity [42] 79% | residual activity [43] 80% | residual activity [44] 98% | residual activity [45] 68%
